Values quoted from earlier work in US20040081632A1, “Novel antiperspirant/deodorant active for no white residue sticks and soft solids” (priority 2002, published 2004).

Conditions: neat organic solvent

For 1-methyl 2-propanol, the RI is given as 1.403.

For `CCOCCO` [2 ethoxy ethanol], the RI is listed as 1.407.

In the case of `COCCO` [2 methoxy ethanol], the RI is given as 1.402.

For `COC(C)CCO` (stereo not drawn) [3 methoxy butanol], the RI is given as 1.411.

In the case of `CC(O)CO` (stereo not drawn) [propylene glycol], the RI is listed as 1.430.

In the case of `CC(O)COC(C)COC(C)CO` (stereo not drawn) [tripropylene glycol], the RI is listed as 1.454.
